Toxic doses and inconclusive results are not listed. Cut-off read from the data, not from the text of the source: active = T/C of 150% or more; inactive = T/C below 125%.
Test system: L1210 leukemia ip in BDF1 mice, survival T/C
Experiment: NCI In Vivo Anticancer Drug Screen. Data for tumor model L1210 Leukemia (intraperitoneal) in B6D2F1 (BDF1) mice
Conditions: endpoint: mean survival time, higher = longer survival
In short: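 Read-out is survival time, reported as the treated-group measurement over the vehicle-control measurement.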

[1] = dose: 100.0 mg/kg/injection, schedule: Q01DX001 (ip), vehicle: saline
[2] = dose: 200.0 mg/kg/injection, schedule: Q01DX001 (ip), vehicle: saline
[3] = dose: 50.0 mg/kg/injection, schedule: Q01DX001 (ip), vehicle: saline
[4] = dose: 400.0 mg/kg/injection, schedule: Q01DX001 (ip), vehicle: saline
[5] = dose: 100.0 mg/kg/injection, schedule: Q01DX001 (ip), vehicle: carboxymethylcellulose (CMC)
[6] = dose: 200.0 mg/kg/injection, schedule: Q01DX001 (ip), vehicle: carboxymethylcellulose (CMC)

Measured: T/C

O=C(CC(=O)C(F)(F)C(F)(F)C(F)(F)F)c1csc2ccccc12
inactive: dose: 8.0 mg/kg/injection, schedule: Q01DX015 (ip), vehicle: saline 87 % of control | dose: 12.5 mg/kg/injection, schedule: Q01DX009 (ip), vehicle: saline with Tween-80 109 % of control | dose: 16.0 mg/kg/injection, schedule: Q01DX015 (ip), vehicle: saline 87 % of control | dose: 25.0 mg/kg/injection, schedule: Q01DX009 (ip), vehicle: saline with Tween-80 108 % of control | dose: 32.0 mg/kg/injection, schedule: Q01DX015 (ip), vehicle: saline 87 % of control | dose: 50.0 mg/kg/injection, schedule: Q01DX009 (ip), vehicle: saline with Tween-80 96 % of control | dose: 50.0 mg/kg/injection, schedule: Q04DX003 (ip), vehicle: acetone 101 % of control | [1] 104 % of control | [2] 102 % of control

O=C1c2cc(O)c(O)cc2O[C@H](c2ccc(O)c(O)c2)[C@H]1O
inactive: dose: 100.0 mg/kg/injection, schedule: Q04DX003 (ip), vehicle: saline 106 % of control | dose: 200.0 mg/kg/injection, schedule: Q04DX003 (ip), vehicle: saline 100 % of control | dose: 400.0 mg/kg/injection, schedule: Q04DX003 (ip), vehicle: saline 104 % of control

COc1ccc(CN2CCCN(Cc3ccc(OC)cc3OC)C2c2ccccc2F)c(OC)c1
inactive: [3] 96 % of control | [1] 96 % of control | [2] 89 % of control | [4] 94 % of control

NC(=O)N/N=C1\CC2CC1C1C=CCC21 (configuration not stated)
inactive: dose: 50.0 mg/kg/injection, schedule: Q01DX001 (ip), vehicle: carboxymethylcellulose (CMC) 102 % of control | [5] 93 % of control | [6] 102 % of control

CCCCCCC(=O)C(CCCC)(C(=O)OCC)C(=O)OCC
inactive: dose: 100.0 mg/kg/injection, schedule: Q01DX009 (ip), vehicle: Klucel (hydroxypropylcellulose) (HPC) 101 % of control | dose: 200.0 mg/kg/injection, schedule: Q01DX009 (ip), vehicle: Klucel (hydroxypropylcellulose) (HPC) 104 % of control | dose: 400.0 mg/kg/injection, schedule: Q01DX009 (ip), vehicle: Klucel (hydroxypropylcellulose) (HPC) 101 % of control

Nc1nc(N)c(N=Nc2ccc(S(=O)(=O)Nc3ccccn3)cc2)cc1N=Nc1ccccc1
inactive: [5] 94 % of control | [6] 102 % of control | dose: 400.0 mg/kg/injection, schedule: Q01DX001 (ip), vehicle: carboxymethylcellulose (CMC) 103 % of control

CNC(=S)N(C)C
inactive: dose: 100.0 mg/kg/injection, schedule: Q04DX003 (ip), vehicle: saline sonified 114 % of control | dose: 200.0 mg/kg/injection, schedule: Q04DX003 (ip), vehicle: saline sonified 103 % of control | dose: 400.0 mg/kg/injection, schedule: Q04DX003 (ip), vehicle: saline sonified 103 % of control

CC(=O)OCC(COC(C)=O)(OC(COC(C)=O)(COC(C)=O)c1ccc(C)c(C)c1)c1ccc(C)c(C)c1
inactive: [3] 97 % of control | [1] 100 % of control | [2] 97 % of control | [4] 100 % of control

C=CCC1(C(=C)C)C(=O)NC(=O)NC1=O
inactive: dose: 75.0 mg/kg/injection, schedule: Q01DX001 (ip), vehicle: carboxymethylcellulose (CMC) 97 % of control | dose: 150.0 mg/kg/injection, schedule: Q01DX001 (ip), vehicle: carboxymethylcellulose (CMC) 93 % of control | dose: 300.0 mg/kg/injection, schedule: Q01DX001 (ip), vehicle: carboxymethylcellulose (CMC) 111 % of control

NC(N)=NCCCC(N)C(=O)NCCCCCCNC(=O)CCC(=O)NCCCCCCNC(=O)C(N)CCCN=C(N)N (configuration not stated)
inactive: dose: 62.5 mg/kg/injection, schedule: Q01DX010 (ip), vehicle: saline 94 % of control | dose: 125.0 mg/kg/injection, schedule: Q01DX010 (ip), vehicle: saline 98 % of control | dose: 250.0 mg/kg/injection, schedule: Q01DX010 (ip), vehicle: saline 100 % of control | dose: 500.0 mg/kg/injection, schedule: Q01DX010 (ip), vehicle: saline 113 % of control

O=C(O)[C@H]1CC2CCC1C2 (some centres not stated)
inactive: dose: 100.0 mg/kg/injection, schedule: Q04DX003 (ip), vehicle: saline with Tween-80 98 % of control | dose: 200.0 mg/kg/injection, schedule: Q04DX003 (ip), vehicle: saline with Tween-80 102 % of control | dose: 400.0 mg/kg/injection, schedule: Q04DX003 (ip), vehicle: saline with Tween-80 93 % of control
